Earlier results, collected in US20250188545A1, “METHODS FOR PREDICTING RESPONSIVENESS OF LYMPHOMA TO DRUG AND METHODS FOR TREATING LYMPHOMA” (Celgene Corporation, priority 2022, published 2025).

Tested on: high-risk ABC DLBCL population
Conditions: PHOENIX (ibrutinib), ROBUST (lenalidomide)

Nc1cccc2c1CN(C1CCC(=O)NC1=O)C2=O (stereo not shown) [lenalidomide]
activity combined with R-CHOP compared to R-CHOP alone: did not demonstrate greater activities
